“And” between values parts separate entries of the source, which are not always exact repeats. Equal entries are not always repeated.
Assays:
Rattus norvegicus [1] = assay: Tested for the change in diastolic blood pressure administered at 3200 ug/kg iv in anesthetized rats in presence of phentolamine (2 mg/kg); type: functional, Artery
Rattus norvegicus [2] = assay: Tested for the change in systolic blood pressure administered at 100 ug/kg intravenously in anesthetized rats; type: functional, Artery
Rattus norvegicus [3] = assay: Change in heart rate administered at 3200 ug/kg iv in anesthetized rats in presence of spinalization under vagotomy (p<0.05); type: functional
Rattus norvegicus [4] = assay: Change in respiratory frequency administered at 6400 ug/kg iv in anesthetized rats; type: functional
Rattus norvegicus [5] = assay: Tested for the change in diastolic blood pressure administered at 800 ug/kg iv in anesthetized rats in presence of propranolol (3 mg/kg); type: functional, Artery
Rattus norvegicus [6] = assay: Tested for the change in systolic blood pressure administered at 6400 ug/kg intravenously in anesthetized rats; type: functional, Artery
Rattus norvegicus [7] = assay: Tested for the change in systolic blood pressure administered at 3200 ug/kg intravenously in anesthetized rats; type: functional, Artery
Rattus norvegicus [8] = assay: Maximum rate of rise of the left ventricular isovolumetric pressure (dP/dt) administered at 50 ug/kg iv in anesthetized rats; type: functional, Heart left ventricle
Rattus norvegicus [9] = assay: Change in heart rate administered at 3200 ug/kg iv in anesthetized rats in presence of hexamethonium (5 mg/kg) (p<0.05); type: functional
Rattus norvegicus [10] = assay: Tested for the change in systolic blood pressure administered at 200 ug/kg intravenously in anesthetized rats in presence of spinalization under vagotomy; type: functional, Artery
Rattus norvegicus [11] = assay: Maximum rate of rise of the left ventricular isovolumetric pressure administered at 800 ug/kg iv in anesthetized rats in presence of phentolamine (2 mg/kg); type: functional, Heart left ventricle
Rattus norvegicus [12] = assay: Change in respiratory frequency administered at 1600 ug/kg iv in anesthetized rats; type: functional
Rattus norvegicus [13] = assay: Maximum rate of rise of the left ventricular isovolumetric pressure (dP/dt) administered at 1600 ug/kg iv in anesthetized rats; type: functional, Heart left ventricle
Rattus norvegicus [14] = assay: Tested for the change in systolic blood pressure administered at 6400 ug/kg intravenously in anesthetized rats in presence of propranolol (3 mg/kg); type: functional, Artery
Rattus norvegicus [15] = assay: Change in heart rate administered at 6400 ug/kg iv in anesthetized rats in presence of propranolol (3 mg/kg) (p<0.05); type: functional
Rattus norvegicus [16] = assay: Tested for the change in systolic blood pressure administered at 800 ug/kg intravenously in anesthetized rats; type: functional, Artery
Rattus norvegicus [17] = assay: Tested for the change in diastolic blood pressure administered at 50 ug/kg intravenously in anesthetized rats; type: functional, Artery
Rattus norvegicus [18] = assay: Maximum rate of rise of the left ventricular isovolumetric pressure administered at 1600 ug/kg iv in anesthetized rats in presence of […] (3 mg/kg) (p<0.05); type: functional, Heart left ventricle
Rattus norvegicus [19] = assay: Maximum rate of rise of the left ventricular isovolumetric pressure administered at 3200 ug/kg iv in anesthetized rats in presence of hexamethonium (5 mg/kg) (p<0.05); type: functional, Heart left ventricle
Rattus norvegicus [20] = assay: Tested for the change in systolic blood pressure administered at 3200 ug/kg iv in anesthetized rats in presence of spinalization under vagotomy (p<0.05); type: functional, Artery
Rattus norvegicus [21] = assay: Tested for the change in diastolic blood pressure administered at 3200 ug/kg iv in anesthetized rats in presence of hexamethonium (5 mg/kg) (p<0.05); type: functional, Artery
Rattus norvegicus [22] = assay: Tested for the change in diastolic blood pressure administered at 3200 ug/kg intravenously in anesthetized rats; type: functional, Artery
Rattus norvegicus [23] = assay: Maximum rate of rise of the left ventricular isovolumetric pressure (dP/dt) administered at 400 ug/kg iv in anesthetized rats; type: functional, Heart left ventricle
Rattus norvegicus [24] = assay: Maximum rate of rise of the left ventricular isovolumetric pressure administered at 3200 ug/kg iv in anesthetized rats in presence of spinalization under vagotomy (p<0.05); type: functional, Heart left ventricle
Rattus norvegicus [25] = assay: Tested for the change in diastolic blood pressure administered at 1600 ug/kg intravenously in anesthetized rats; type: functional, Artery
Rattus norvegicus [26] = assay: Maximum rate of rise of the left ventricular isovolumetric pressure administered at 6400 ug/kg iv in anesthetized rats in presence of […] (3 mg/kg) (p<0.05); type: functional, Heart left ventricle
Rattus norvegicus [27] = assay: Maximum rate of rise of the left ventricular isovolumetric pressure administered at 800 ug/kg iv in anesthetized rats in presence of hexamethonium (5 mg/kg) (p<0.05); type: functional, Heart left ventricle
Rattus norvegicus [28] = assay: Tested for the change in diastolic blood pressure administered at 800 ug/kg intravenously in anesthetized rats; type: functional, Artery
Rattus norvegicus [29] = assay: Maximum rate of rise of the left ventricular isovolumetric pressure (dP/dt) administered at 100 ug/kg iv in anesthetized rats; type: functional, Heart left ventricle
Rattus norvegicus [30] = assay: Tested for the change in diastolic blood pressure administered at 1600 ug/kg iv in anesthetized rats in presence of propranolol (3 mg/kg); type: functional, Artery
Rattus norvegicus [31] = assay: Maximum rate of rise of the left ventricular isovolumetric pressure administered at 3200 ug/kg iv in anesthetized rats in presence of […] (3 mg/kg) (p<0.05); type: functional, Heart left ventricle
Rattus norvegicus [32] = assay: Tested for the change in diastolic blood pressure administered at 3200 ug/kg iv in anesthetized rats in presence of propranolol (3 mg/kg); type: functional, Artery
Rattus norvegicus [33] = assay: Maximum rate of rise of the left ventricular isovolumetric pressure (dP/dt) administered at 800 ug/kg iv in anesthetized rats; type: functional, Heart left ventricle
Rattus norvegicus [34] = assay: Change in respiratory frequency administered at 3200 ug/kg iv in anesthetized rats; type: functional
Rattus norvegicus [35] = assay: Tested for the change in systolic blood pressure administered at 3200 ug/kg intravenously in anesthetized rats in presence of hexamethonium (5 mg/kg) (p<0.05); type: functional, Artery
Rattus norvegicus [36] = assay: Tested for the change in systolic blood pressure administered at 800 ug/kg intravenously in anesthetized rats in presence of hexamethonium (5 mg/kg) (p<0.05); type: functional, Artery
Rattus norvegicus [37] = assay: Maximum rate of rise of the left ventricular isovolumetric pressure (dP/dt) administered at 3200 ug/kg iv in anesthetized rats; type: functional, Heart left ventricle
Rattus norvegicus [38] = assay: Change in heart rate administered at 3200 ug/kg iv in anesthetized rats in presence of propranolol (3 mg/kg) (p<0.05); type: functional
Rattus norvegicus [39] = assay: Tested for the change in systolic blood pressure administered at 1600 ug/kg intravenously in anesthetized rats in presence of propranolol (3 mg/kg); type: functional, Artery
Rattus norvegicus [40] = assay: Maximum rate of rise of the left ventricular isovolumetric pressure (dP/dt) administered at 200 ug/kg iv in anesthetized rats; type: functional, Heart left ventricle
Rattus norvegicus [41] = assay: Tested for the change in systolic blood pressure administered at 400 ug/kg intravenously in anesthetized rats; type: functional, Artery
Rattus norvegicus [42] = assay: Change in heart rate administered at 800 ug/kg iv in anesthetized rats in presence of hexamethonium (5 mg/kg) (p<0.05); type: functional
Rattus norvegicus [43] = assay: Tested for the change in systolic blood pressure administered at 200 ug/kg iv in anesthetized rats in presence of spinalization under vagotomy; type: functional, Artery

Structure (SMILES): COc1ccc(/C=C/C(=O)NCCCC/N=C(\N)NCC=C(C)C)cc1OC
- Blood pressure (Rattus norvegicus [1]): -39 mmHg
- Blood pressure (Rattus norvegicus [2]): -6 mmHg and -8%
- Heart rate (Rattus norvegicus [3]): 3 beats min-1
- Frequency (Rattus norvegicus [4]): -87 beats min-1 and -80%
- Blood pressure (Rattus norvegicus [5]): -13 mmHg
- Blood pressure (Rattus norvegicus [6]): -34 mmHg and -40%
- Blood pressure (Rattus norvegicus [7]): -25 mmHg and -29%
- BP (Rattus norvegicus [8]): 1%
- dp/dt (Rattus norvegicus [8]): 52 mmHg s-1
- Heart rate (Rattus norvegicus [9]): 9 beats min-1
- Blood pressure (Rattus norvegicus [10]): 0 mmHg
- dp/dt (Rattus norvegicus [11]): 2503 mmHg s-1
- Frequency (Rattus norvegicus [12]): 23 beats min-1 and 21%
- BP (Rattus norvegicus [13]): 57%
- dp/dt (Rattus norvegicus [13]): 2996 mmHg s-1
- Blood pressure (Rattus norvegicus [14]): -35 mmHg
- Heart rate (Rattus norvegicus [15]): 11 beats min-1
- Blood pressure (Rattus norvegicus [16]): -17 mmHg and -21%
- Blood pressure (Rattus norvegicus [17]): -5 mmHg and -8%
- dp/dt (Rattus norvegicus [18]): 520 mmHg s-1
- dp/dt (Rattus norvegicus [19]): 1124 mmHg s-1
- Blood pressure (Rattus norvegicus [20]): -8 mmHg and -12 mmHg
- Blood pressure (Rattus norvegicus [21]): -17 mmHg
- Blood pressure (Rattus norvegicus [22]): -29 mmHg and -47%
- BP (Rattus norvegicus [23]): 33%
- dp/dt (Rattus norvegicus [23]): 1712 mmHg s-1
- dp/dt (Rattus norvegicus [24]): 680 mmHg s-1
- Blood pressure (Rattus norvegicus [25]): -18 mmHg and -29%
- dp/dt (Rattus norvegicus [26]): 853 mmHg s-1
- dp/dt (Rattus norvegicus [27]): 890 mmHg s-1
- Blood pressure (Rattus norvegicus [28]): -15 mmHg and -23%
- BP (Rattus norvegicus [29]): 3%
- dp/dt (Rattus norvegicus [29]): 141 mmHg s-1
- Blood pressure (Rattus norvegicus [30]): -20 mmHg
- dp/dt (Rattus norvegicus [31]): 760 mmHg s-1
- Blood pressure (Rattus norvegicus [32]): -26 mmHg
- BP (Rattus norvegicus [33]): 41%
- dp/dt (Rattus norvegicus [33]): 2140 mmHg s-1
- Frequency (Rattus norvegicus [34]): -41 beats min-1 and -39%
- Blood pressure (Rattus norvegicus [35]): -11 mmHg
- Blood pressure (Rattus norvegicus [36]): -5 mmHg
- BP (Rattus norvegicus [37]): 55%
- dp/dt (Rattus norvegicus [37]): 2984 mmHg s-1
- Heart rate (Rattus norvegicus [38]): 9 beats min-1
- Blood pressure (Rattus norvegicus [39]): -25 mmHg
- BP (Rattus norvegicus [40]): 25%
- dp/dt (Rattus norvegicus [40]): 1284 mmHg s-1
- Blood pressure (Rattus norvegicus [41]): -15 mmHg and -18%
- Heart rate (Rattus norvegicus [42]): 5 beats min-1
- Blood pressure (Rattus norvegicus [43]): 0 mmHg
